Earlier results as cited in patent publication US20050136438A1, “Genetic analysis for stratification of cancer risk” (priority 2003, published 2005).
Structures can show the parent of a compound that is named as a salt.

O=C(c1ccc(OCCN2CCCCC2)cc1)c1c(-c2ccc(O)cc2)sc2cc(O)ccc12 [Raloxifene HCl, methanone, [6-hydroxy-2-(4-hydroxyphenyl)benzo[b]thien-3-yl]-[4-[2-(1-piperidinyl)ethoxy]phenyl]-hydrochloride]
solubility in water: very slightly soluble
